Measured values as given in ChEMBL document CHEMBL1201862, “PubChem BioAssay data set” (2004).
Calls of active or inactive are those of the source.

How the values were obtained:
[1] = molecular target: Paired box protein Pax-8 (Homo sapiens, UniProt Q06710); test: inhibitors of PAX8-driven TPO luciferase reporter, dose response, RMG-I cells, cherry-pick (AID 687027); format: functional, cell-based;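 note: luciferase reporter driven by Pax8 target thyroperoxidase promoter measured by SteadyGlo luminescence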
[2] = cytotoxicity in OVCAR8 ovarian cancer cells, dose response, PAX8 project, cell-based, plate reader, dry powder samples (AID 743197); format: functional; details: OVCAR-8
[3] = A549 cell cytotoxicity, dose response, CellTiter-Glo luminescence, dry powder, set 17 (AID 1117284); format: functional, cell-based
[4] = HeLa cell cytotoxicity, dose response, cytotoxicity control, 24 h, plate reader, powder samples, set 3 (AID 651864); format: functional, cell-based
[5] = inhibitors of PGC1a acetylation in cells, dose response, cell-based, cherry-picked samples (AID 720514); format: functional;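 note: potency may reflect raised or lowered acetylation signal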
[6] = P. falciparum 3D7-ScDHODH growth inhibitors, dose response, SYBR Green, dry powder samples (AID 1159570); format: functional, cell-based;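 note: parasite growth measured after 72 hours of compound exposure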
[7] = HepG2 cell cytotoxicity, dose response, cytotoxicity control, plate reader, dry powder samples (AID 1159569); format: functional, cell-based;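 note: inhibitor potency with signal falling toward the positive control level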
[8] = P. falciparum Dd2 growth inhibitors, dose response, SYBR Green, cherry-picked samples (AID 1159567); format: functional, cell-based
[9] = P. falciparum Dd2 growth inhibitors, dose response, SYBR Green, dry powder samples (AID 1159566); format: functional, cell-based;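 note: potency for growth inhibition with lower SYBR green DNA signal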
[10] = P. falciparum ATP4 D1247Y mutant growth inhibitors, dose response, NITD609-resistant line, SYBR Green, dry powder (AID 1159571); format: functional, cell-based;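 note: parasites synchronized at ring stage by sorbitol before testing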
[11] = HepG2 cell cytotoxicity, dose response, cytotoxicity control, plate reader, dry powder, set 6 (AID 743311); format: functional, cell-based
[12] = HeLa 2N DNA content increase, dose response, cell-based, IC50 (AID 1117349); format: functional
[13] = Concentration-dependent survival of SW480 colon cancer line, luminescence detection with CellTiter-Glo, half-maximal inhibitory concentration (AID 1117338); format: functional
[14] = RKO cell viability reduction, dose response, CellTiter-Glo luminescence (AID 1117322); format: functional
[15] = cytotoxicity toward HCT116 cells – cell-based, CellTiter-Glo luminescence, IC50, dose response (AID 1117332); format: functional; details: HCT-116
[16] = SNU-C1 cell viability reduction, dose response, CellTiter-Glo luminescence (AID 1117323); format: functional, cell-based
[17] = cytotoxicity toward Colo320 cells – cell-based, CellTiter-Glo luminescence, IC50, dose response (AID 1117334); format: functional; details: COLO 320
[18] = HeLa 4N DNA content increase, dose response, cell-based, IC50 (AID 1117351); format: functional
[19] = cytotoxicity toward HT-29 cells – cell-based, CellTiter-Glo luminescence, IC50, dose response (AID 1117330); format: functional
[20] = CellTiter-Glo luminescent dose response of DLD-1 viability loss (AID 1117352); format: functional
[21] = HCT116 cell viability decrease, GSK3B pretreatment – CellTiter-Glo, IC50, dose response (AID 1117339); format: functional; details: HCT-116
[22] = Dose-response inhibition of insulin secretion in a rat insulinoma line at 5 mM glucose (AID 1117331); format: functional, cell-based; details: INS-1E

Sequence of Paired box protein Pax-8 (Q06710 whole entry): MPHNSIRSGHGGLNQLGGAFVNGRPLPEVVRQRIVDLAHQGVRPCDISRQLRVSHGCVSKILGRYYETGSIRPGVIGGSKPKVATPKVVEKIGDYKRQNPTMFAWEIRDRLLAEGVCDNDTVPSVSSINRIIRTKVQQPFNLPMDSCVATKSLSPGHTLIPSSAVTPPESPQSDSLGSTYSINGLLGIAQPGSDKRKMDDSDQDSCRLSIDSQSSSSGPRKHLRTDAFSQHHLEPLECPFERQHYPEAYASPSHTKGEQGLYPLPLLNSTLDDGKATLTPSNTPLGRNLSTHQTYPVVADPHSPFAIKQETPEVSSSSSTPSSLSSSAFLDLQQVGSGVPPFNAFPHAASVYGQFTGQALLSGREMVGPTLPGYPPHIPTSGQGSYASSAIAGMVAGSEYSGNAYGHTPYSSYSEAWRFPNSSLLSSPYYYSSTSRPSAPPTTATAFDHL

For `C[C@H](O)C#Cc1ccc2c(c1)O[C@H](CN(C)Cc1ccc(-c3ccccc3)cc1)[C@H](C)CN([C@@H](C)CO)S2(=O)=O`, the AC50 [1] was 5870 nM (active), the AC50 [2] was 50000 nM (active) and the AC50 [3] was > 52000 nM (inactive).

With `c1ccc(Cn2nnc(NCc3ccc(N4CCCC4)cc3)n2)cc1` the AC50 [4] was > 160000 nM (inactive).

In the case of `O=S(=O)(c1ccc(-c2ccccc2)cc1)N1C[C@@H]2N[C@H](C1)[C@@H]2c1ccc(-c2cccnc2)cc1`, the AC50 [5] is reported as 8200 nM (active), the AC50 [6] is reported as 1290 nM (active) and the AC50 [7] is reported as 19500 nM (active). The AC50 [8] was 2140 nM (active), the AC50 [9] was 772 nM (active) and the AC50 [10] was 1800 nM (active).

With `CC(C)Oc1ccc(OCCn2c(=S)[nH]c3ccccc32)cc1` the AC50 [11] was > 52000 nM (inactive).

In the case of `O=C1C2CC=CCC2C(=O)N1SC(Cl)(Cl)Cl` (configuration not stated) [CAPTAN], the IC50 [12] is reported as > 10000 nM (inactive), the IC50 [13] is reported as 78.8 nM (active) and the IC50 [14] is reported as 402 nM (active). The IC50 [15] was 1760 nM (active), the IC50 [16] was 903 nM (active) and the IC50 [17] was 306 nM (active). For the same compound, the IC50 [18] was > 10000 nM (inactive), the IC50 [19] was 500 nM (active) and the IC50 [20] was 348 nM (active). The IC50 [21] was 2210 nM (active).

In the case of `OC(CCN1CCCCC1)(c1ccccc1)c1ccccc1` [PRIDINOL], the IC50 [22] is reported as 27000 nM (inactive).
